Assays:
Format in all cases: in vivo
Alopecurus myosuroides [1] = experiment: Herbicidal post-emergence action; conditions: 1280 g/ha, visual assessment after ca. 3 weeks vs untreated controls
Text: (§1) Seeds of mono- and dicotyledonous weed plants were sown in plastic pots (double sowings with one species of mono- and one species of dicotyledonous weed plants per pot), in sandy loam, covered with soil and grown under controlled growth conditions. 2 to 3 weeks after sowing, the test plants were sprayed in the single-leaf stage. The compounds according to the invention, formulated in the form of wettable powders (WP) or as emulsifiable concentrates (EC), were sprayed onto the green plant parts as an aqueous suspension or as an emulsion, with the addition of 0.5% of an additive, at an application rate of 600 litres of water per hectare (converted). The test plants were placed in the greenhouse for ca. 3 weeks under optimum growth conditions, and then the effect of the preparations is assessed visually in comparison with untreated controls (herbicidal effect in percent (%): 100% effect = plants have died, 0% effect = as control plants).
as §1, with “(EC), are” for “(EC), were”, “controls (herbicidaleffectinpercent(%):100%effect=plantshavedied,0%effect=ascontrolplants). [formula]” for “controls (herbicidal effect in percent (%): 100% effect = plants have died, 0% effect = as control plants).”

Kochia scoparia [2] = experiment: Herbicidal post-emergence action; conditions: visual assessment after ca. 3 weeks vs untreated controls
Text: as §1
as §1, with “(EC), are” for “(EC), were”, “controls (herbicidaleffectinpercent(%):100%effect=plantshavedied,0%effect=ascontrolplants). [formula]” for “controls (herbicidal effect in percent (%): 100% effect = plants have died, 0% effect = as control plants).”

Veronica persica [3] = experiment: Herbicidal post-emergence action; conditions: visual assessment after ca. 3 weeks vs untreated controls
Text: as §1
as §1, with “(EC), are” for “(EC), were”, “controls (herbicidaleffectinpercent(%):100%effect=plantshavedied,0%effect=ascontrolplants). [formula]” for “controls (herbicidal effect in percent (%): 100% effect = plants have died, 0% effect = as control plants).”

Matricaria inodora [4] = experiment: Herbicidal post-emergence action; conditions: visual assessment after ca. 3 weeks vs untreated controls
Text: as §1
as §1, with “(EC), are” for “(EC), were”, “controls (herbicidaleffectinpercent(%):100%effect=plantshavedied,0%effect=ascontrolplants). [formula]” for “controls (herbicidal effect in percent (%): 100% effect = plants have died, 0% effect = as control plants).”

Poa annua [5] = experiment: Herbicidal post-emergence action; conditions: visual assessment after ca. 3 weeks vs untreated controls
Text: as §1
as §1, with “(EC), are” for “(EC), were”, “controls (herbicidaleffectinpercent(%):100%effect=plantshavedied,0%effect=ascontrolplants). [formula]” for “controls (herbicidal effect in percent (%): 100% effect = plants have died, 0% effect = as control plants).”

Setaria viridis = experiment: Herbicidal post-emergence action; conditions: 1280 g/ha, visual assessment after ca. 3 weeks vs untreated controls
Text: as §1
as §1, with “(EC), are” for “(EC), were”, “controls (herbicidaleffectinpercent(%):100%effect=plantshavedied,0%effect=ascontrolplants). [formula]” for “controls (herbicidal effect in percent (%): 100% effect = plants have died, 0% effect = as control plants).”

Stellaria media [6] = experiment: Herbicidal post-emergence action; conditions: visual assessment after ca. 3 weeks vs untreated controls
Text: as §1
as §1, with “(EC), are” for “(EC), were”, “controls (herbicidaleffectinpercent(%):100%effect=plantshavedied,0%effect=ascontrolplants). [formula]” for “controls (herbicidal effect in percent (%): 100% effect = plants have died, 0% effect = as control plants).”

Amaranthus retroflexus [7] = experiment: Herbicidal post-emergence action; conditions: visual assessment after ca. 3 weeks vs untreated controls
Text: as §1
as §1, with “(EC), are” for “(EC), were”, “controls (herbicidaleffectinpercent(%):100%effect=plantshavedied,0%effect=ascontrolplants). [formula]” for “controls (herbicidal effect in percent (%): 100% effect = plants have died, 0% effect = as control plants).”

Lolium rigidum [8] = experiment: Herbicidal pre-emergence action; conditions: visual grading after ca. 3 weeks vs untreated controls
Text: (§2) Seeds of mono- and dicotyledonous weed plants were sown in plastic pots (double sowings with one species of mono- and one species of dicotyledonous weed plants per pot), in sandy loam, and covered with soil. The compounds according to the invention, formulated in the form of wettable powders (WP) or as emulsifiable concentrates (EC), were applied to the surface of the covering soil as an aqueous suspension or as an emulsion, with the addition of 0.5% of an additive, at an application rate of 600 litres of water per hectare (converted). Following treatment, the pots were placed in a greenhouse and kept under optimum growth conditions for the test plants. The visual grading of the damage to the test plants is carried out after ca. 3 weeks in comparison to untreated controls (herbicidal effect in percent (%): 100% effect = plants have died, 0% effect = as control plants). Seeds of mono- and dicotyledonous weed plants were sown in plastic pots (double sowings with one species of mono- and one species of dicotyledonous weed plants per pot), in sandy loam, and covered with soil. The compounds according to the invention, formulated in the form of wettable powders (WP) or as emulsifiable concentrates (EC), were applied to the surface of the covering soil as an aqueous suspension or as an emulsion, with the addition of 0.5% of an additive, at an application rate of 600 litres of water per hectare (converted). Following treatment, the pots were placed in a greenhouse and kept under optimum growth conditions for the test plants. The visual grading of the damage to the test plants is carried out after ca. 3 weeks in comparison to untreated controls (herbicidal effect in percent (%): 100% effect = plants have died, 0% effect = as control plants).

Matricaria inodora [9] = experiment: Herbicidal pre-emergence action; conditions: 1280 g/ha, visual grading after ca. 3 weeks vs untreated controls
Text: as §2

Poa annua [10] = experiment: Herbicidal pre-emergence action; conditions: visual grading after ca. 3 weeks vs untreated controls
Text: as §2

Stellaria media [11] = experiment: Herbicidal pre-emergence action; conditions: 1280 g/ha, visual grading after ca. 3 weeks vs untreated controls
Text: as §2

Lolium rigidum [12] = experiment: Herbicidal post-emergence action; conditions: visual assessment after ca. 3 weeks vs untreated controls
Text: as §1
as §1, with “(EC), are” for “(EC), were”, “controls (herbicidaleffectinpercent(%):100%effect=plantshavedied,0%effect=ascontrolplants). [formula]” for “controls (herbicidal effect in percent (%): 100% effect = plants have died, 0% effect = as control plants).”

Digitaria sanguinalis [13] = experiment: Herbicidal post-emergence action; conditions: visual assessment after ca. 3 weeks vs untreated controls
Text: as §1
as §1, with “(EC), are” for “(EC), were”, “controls (herbicidaleffectinpercent(%):100%effect=plantshavedied,0%effect=ascontrolplants). [formula]” for “controls (herbicidal effect in percent (%): 100% effect = plants have died, 0% effect = as control plants).”

Abutilon theophrasti [14] = experiment: Herbicidal post-emergence action; conditions: 1280 g/ha, visual assessment after ca. 3 weeks vs untreated controls
Text: as §1
as §1, with “(EC), are” for “(EC), were”, “controls (herbicidaleffectinpercent(%):100%effect=plantshavedied,0%effect=ascontrolplants). [formula]” for “controls (herbicidal effect in percent (%): 100% effect = plants have died, 0% effect = as control plants).”

Alopecurus myosuroides [15] = experiment: Herbicidal pre-emergence action; conditions: 1280 g/ha, visual grading after ca. 3 weeks vs untreated controls
Text: as §2

Amaranthus retroflexus [16] = experiment: Herbicidal pre-emergence action; conditions: 1280 g/ha, visual grading after ca. 3 weeks vs untreated controls
Text: as §2

Kochia scoparia [17] = experiment: Herbicidal pre-emergence action; conditions: 1280 g/ha, visual grading after ca. 3 weeks vs untreated controls
Text: as §2

Veronica persica [18] = experiment: Herbicidal pre-emergence action; conditions: 1280 g/ha, visual grading after ca. 3 weeks vs untreated controls
Text: as §2

Echinochloa crus-galli = experiment: Herbicidal pre-emergence action; conditions: 1280 g/ha, visual grading after ca. 3 weeks vs untreated controls
Text: as §2

Abutilon theophrasti [19] = experiment: Herbicidal pre-emergence action; conditions: 1280 g/ha, visual grading after ca. 3 weeks vs untreated controls
Text: as §2

Digitaria sanguinalis [20] = experiment: Herbicidal pre-emergence action; conditions: 1280 g/ha, visual grading after ca. 3 weeks vs untreated controls
Text: as §2

| SMILES | herbicidal effect in percent (%), ALOMY (Alopecurus myosuroides [1]) | herbicidal effect in percent (%), KCHSC (Kochia scoparia [2]; 1280 g/ha) | herbicidal effect in percent (%), VERPE (Veronica persica [3]; 1280 g/ha) | herbicidal effect in percent (%), MATIN (Matricaria inodora [4]; 320 g/ha) | herbicidal effect in percent (%), MATIN (Matricaria inodora [4]; 1280 g/ha) | herbicidal effect in percent (%), POAAN (Poa annua [5]; 1280 g/ha) | herbicidal effect in percent (%), SETVI (Setaria viridis) | herbicidal effect in percent (%), STEME (Stellaria media [6]; 1280 g/ha) | herbicidal effect in percent (%), AMARE (Amaranthus retroflexus [7]; 1280 g/ha) | herbicidal effect in percent (%), LOLRI (Lolium rigidum [8]; 320 g/ha) | herbicidal effect in percent (%), LOLRI (Lolium rigidum [8]; 1280 g/ha) | herbicidal effect in percent (%), MATIN (Matricaria inodora [9]) | herbicidal effect in percent (%), POAAN (Poa annua [10]; 1280 g/ha) | herbicidal effect in percent (%), STEME (Stellaria media [11]) | herbicidal effect in percent (%), LOLRI (Lolium rigidum [12]; 1280 g/ha) | herbicidal effect in percent (%), VERPE (Veronica persica [3]; 320 g/ha) | herbicidal effect in percent (%), ABUTH (Abutilon theophrasti [14]) | herbicidal effect in percent (%), STEME (Stellaria media [6]; 320 g/ha) | herbicidal effect in percent (%), ALOMY (Alopecurus myosuroides [15]) | herbicidal effect in percent (%), AMARE (Amaranthus retroflexus [16]) | further results |
| --- | --- | --- | --- | --- | --- | --- | --- | --- | --- | --- | --- | --- | --- | --- | --- | --- | --- | --- | --- | --- | --- |
| O=C(Nc1ncns1)c1cc(F)ncc1Br [Example I-027, 5-bromo-2-fluoro-N-(1,2,4-thiadiazol-5-yl)pyridine-4-carboxamide] | 90% | 90% | 90% | 90% | 90% | 90% | 90% | 90% | 90% | 90% | 100% | 90% | 90% | 100% | – | – | – | – | – | – | herbicidal effect in percent (%), POAAN (Poa annua [10]; 320 g/ha): 90% |
| O=C(Nc1ncns1)c1cc(Cl)ncc1Cl [Example I-011] | 100% | 100% | 100% | 100% | 100% | 90% | – | 100% | 100% | – | 90% | 100% | 100% | 90% | 90% | 90% | 90% | 90% | 90% | 90% | herbicidal effect in percent (%), KCHSC (Kochia scoparia [2]; 320 g/ha): 90%; herbicidal effect in percent (%), DIGSA (Digitaria sanguinalis [13]; 320 g/ha): 90%; herbicidal effect in percent (%), DIGSA (Digitaria sanguinalis [13]; 1280 g/ha): 100%; herbicidal effect in percent (%), AMARE (Amaranthus retroflexus [7]; 320 g/ha): 90% |
| O=C(Nc1ncns1)c1cc(Cl)ncc1C(F)(F)F [Example I-013, 2-chloro-N-(1,2,4-thiadiazol-5-yl)-5-(trifluoromethyl)pyridine-4-carboxamide] | 90% | 100% | 100% | 100% | 100% | 100% | – | 100% | 100% | 90% | 100% | 100% | 90% | 100% | 100% | 100% | – | 100% | 90% | 100% | herbicidal effect in percent (%), LOLRI (Lolium rigidum [12]; 320 g/ha): 90%; herbicidal effect in percent (%), KCHSC (Kochia scoparia [2]; 320 g/ha): 100%; herbicidal effect in percent (%), POAAN (Poa annua [5]; 320 g/ha): 100%; herbicidal effect in percent (%), KCHSC (Kochia scoparia [17]): 100%; herbicidal effect in percent (%), VERPE (Veronica persica [18]): 100%; herbicidal effect in percent (%), ECHCG (Echinochloa crus-galli): 100%; herbicidal effect in percent (%), ABUTH (Abutilon theophrasti [19]): 90% |
| O=C(Nc1ncns1)c1cc(Cl)ncc1OC(F)(F)F [Example 1-012, 2-chloro-N-(1,2,4-thiadiazol-5-yl)-5-(trifluoromethoxy)pyridine-4-carboxamide] | – | 90% | 100% | – | 100% | 90% | 90% | 100% | 100% | – | 100% | – | 90% | – | – | – | 90% | – | – | – | – |
| O=C(Nc1ncns1)c1c(Br)cncc1Br [Example I-015] | 100% | 100% | 100% | 100% | 100% | 100% | – | 100% | 90% | – | 90% | 100% | 100% | 90% | 100% | 100% | 100% | 100% | 100% | – | herbicidal effect in percent (%), DIGSA (Digitaria sanguinalis [13]; 1280 g/ha): 100%; herbicidal effect in percent (%), POAAN (Poa annua [5]; 320 g/ha): 100%; herbicidal effect in percent (%), VERPE (Veronica persica [18]): 100%; herbicidal effect in percent (%), DIGSA (Digitaria sanguinalis [20]): 100%; herbicidal effect in percent (%), POAAN (Poa annua [10]; 320 g/ha): 100% |
| O=C(Nc1nc(Cl)ns1)c1ccncc1I [Example 1-023, N-(3-chloro-1,2,4-thiadiazol-5-yl)-3-iodo-pyridine-4-carboxamide] | – | 90% | – | – | 100% | 90% | – | 90% | 90% | – | 90% | 100% | – | 100% | – | – | – | – | – | 100% | – |

Reference: patent EP4238973A1, “SUBSTITUTED 1,2,4-THIADIAZOLYL ISONICOTINAMIDES, SALTS OR N-OXIDES THEREOF AND THEIR USE AS HERBICIDALLY ACTIVE SUBSTANCES” (Bayer AG, priority 2022, dated 2023)
